# Earlier results as cited in patent US20100099894A1, “Method for the Synthesis of Cyclic Acetals by the Reactive Extraction of a Polyol in a Concentrated Solution” (priority 2006, published 2010).
# Settings: for solubility in water: aqueous solution, at room temperature, data from Yaw's Handbook
SMILES,miscibility in water (background description of Solketal),solubility in water [mg/kg]
CC1(C)OCC(CO)O1 (centres unmarked) [Solketal],miscible in water,–
CC(=O)c1ccccc1 [acetophenone],–,6842
O=Cc1ccccc1 [benzaldehyde],–,6570
CC(C)CC(=O)CC(C)C [diisobutyl ketone],–,2640
CC(C)C(=O)C(C)C [diisopropyl ketone],–,5700
CCCCCCC=O [n-heptanal],–,1516
CCCCCCCC=O [n-octanal],–,370
CCCCC=O [pentanal],–,11700
